According to patent publication US4816447A, “Anti-viral guanine compounds” (priority 1984, dated 1989):
In brackets after ≈: the same amount, converted by molar mass. Like-named read-outs stand apart in the source and are kept apart here.

Tests used:
[1] = Comparative solubilities in pH 7.2 buffer at 25°; assay type: physicochemical; details: for solubility: aqueous buffer, pH 7.2 phosphate buffer, 25°
Method: Comparative Solubilities in pH 7.2 Buffer at 25°
Solubilities were determined by suspending an excess amount of the compound in approximately 0.15 molar phosphate buffer (pH 7.2) and shaking overnight in a water bath at 25° to give a saturated solution. The concentration of the compound in the filtered solution was calculated on the basis of spectrophotometric measurements, i.e. comparison of the ultraviolet absorbance at the λmax for the saturated solution with the absorbance value observed for a known concentration of the compound.

[2] = tested on: HSV-1; assay: Orofacial HSV-1 infection of hairless mice, oral or topical treatment (Table VI); assay type: in vivo, HSV-1; HRS mice; details: for minimal effective dose: Human alphaherpesvirus 1, oral treatment, read-out: Min. Effective Dose; for minimal effective dose / Min. Effective Dose: orofacial infection; for Min. Effective Dose: topical treatment
[3] = tested on: Herpes simplex virus type 1 (Strain S); assay: Orofacial Herpes simplex virus type 1 infection in mice, therapeutic oral treatment (Table XIV); assay type: in vivo, Herpes simplex virus type 1; HRS (hairless) mice; details: for Lesion Incidence (%) / Lesion Incidence (number/Total) / Lesion Severity (scale 0 to 4): 12.5 mg/kg/day oral
Method: Twenty gram HRS (hairless) mice were infected on the abraded orofacial area with Herpes simplex virus type 1 (Strain S).
a. Groups of 10 infected animals were treated twice daily by oral gavage for up to 7 days with the compound of formula II at 12.5 mg/kg/day, starting 3, 8, 12, 24, 48, 72, or 96 hours after infection. […]
At 7 days after initiation of infection, the extent of lesion development in the orofacial area was measured on a scale of 0 (no lesions) to 4 (massive lesions over the entire snout).

[4] = tested on: Herpes simplex virus; assay: Plaque inhibition, Herpes simplex virus on MRC5 cells (Table V); assay type: cell-based, Herpes simplex virus; MRC5 (human diploid lung) cells
[5] = tested on: Recombinant 6-26; assay: Drug sensitivity of HSV-1/HSV-2 intertypic Recombinant 6-26; details: for EC50: read-out: ED50
[6] = tested on: Recombinant 6-30; assay: Drug sensitivity of HSV-1/HSV-2 intertypic Recombinant 6-30; details: for EC50: read-out: ED50
[7] = tested on: Recombinant 6-34; assay: Drug sensitivity of HSV-1/HSV-2 intertypic Recombinant 6-34; details: for EC50: read-out: ED50
[8] = tested on: HSV-2; assay: Therapeutic efficacy against vaginal HSV-2 infection of mice (Table VII); assay type: in vivo, HSV-2; mice; details: for Survivors/Total: 0.55 μmoles oral gavage twice daily; for therapeutic effectiveness, treatment initiated up to 72 hours after infection: vaginal HSV-2
Method: d. HSV-2 vaginal infection in mice is progressive from local acute infection of the genital area to limb paralysis and eventual death. This is a consistent, reproducible model, but is more virulent and progressive than the human genital disease. Drug efficacy is determined ultimately by extension of animal survival time, and also by the limitation of progression of disease from acute local through paralysis to death. Animals are challenged using in excess of 10 lethal equivalent doses of HSV-2. This model was used to evaluate dosing by oral gavage.

[9] = tested on: Herpes simplex virus type I (HSV-1), strain Schooler; assay: Treatment of Herpes simplex virus infection in mice, intraperitoneal HSV-1, subcutaneous treatment (Table II); assay type: in vivo, HSV-1; ICR/Ha mice; details: for Percent Survival: at 15 days
[10] = tested on: Vaccinia; assay: microbe, parasite or virus in culture; assay type: cell-based, vaccinia; MRC5 (human diploid lung) cells; details: for EC50: Orthopoxvirus vaccinia, MRC5, read-out: ED50, concentration required for 50% plaque inhibition
[11] = tested on: human cytomegalovirus, strain AD169; assay: Plaque inhibition, cytomegalovirus on MRC5 cells (Table V); assay type: cell-based, human cytomegalovirus; MRC5 (human diploid lung) cells
[12] = tested on: HSV-1; assay: Intraperitoneal HSV-1 infection in mice, oral treatment (Table VI); assay type: in vivo, HSV-1; ICR/Ha mice; details: for minimal effective dose: Human alphaherpesvirus 1, intraperitoneal infection, oral treatment, read-out: Min. Effective Dose
[13] = tested on: HSV-1 wild type Strain 17; assay: Drug sensitivity of HSV-1 wild type Strain 17; details: for EC50: Human alphaherpesvirus 1, read-out: ED50
[14] = tested on: HSV-2 TS6
[15] = tested on: Epstein-Barr virus (EBV); assay: Human cord blood lymphocyte transformation assay; assay type: cell-based, Epstein-Barr (B95-8); human cord blood lymphocytes; details: human gammaherpesvirus 4, B-95-8; B95-8, lymphocyte transformation; read-out: Minimum Effective Concentration
Text: ^c Human cord blood lymphocyte transformation assay.

[16] = tested on: Recombinant 6-19; assay: Drug sensitivity of HSV-1/HSV-2 intertypic Recombinant 6-19; details: for EC50: read-out: ED50
[17] = tested on: Varicella-Zoster virus, strain KMcC; assay: Plaque inhibition, Varicella Zoster virus on MRC5 cells (Table V); assay type: cell-based, Varicella-Zoster virus; MRC5 (human diploid lung) cells
[18] = tested on: SV40; assay: Plaque inhibition, SV40 on CV-1 cells (Table V); assay type: cell-based, SV40; CV-1 (monkey) cells; details: for EC50: Primates, read-out: ED50, concentration required for 50% plaque inhibition, SV40, CV-1
Method: ED50 values developed for the cyclic monophosphate are compared on a weight basis to those established for the compound of Formula II and acyclovir.
SV40 was assayed on CV-1 (monkey) cell cultures.

[19] = MRC5, read-out: ED50, concentration required for 50% plaque inhibition
[20] = treatment initiated 0 hrs after infection
[21] = treatment initiated 24 hrs after infection
[22] = treatment initiated 48 hrs after infection
[23] = treatment initiated 72 hrs after infection
[24] = Human betaherpesvirus 5, AD169, MRC5, read-out: ED50, concentration required for 50% plaque inhibition
[25] = Human alphaherpesvirus 3, MRC5, read-out: ED50, concentration required for 50% plaque inhibition

## Nc1nc2c(ncn2COCCO)c(=O)[nH]1 [Acycloguanosine, 9-(2-hydroxyethoxymethyl)guanine, reference compound]
[1]
  solubility: 1300 to 1500 µg/mL (≈ 5770 to 6660 µM)
[2]
  minimal effective dose: 12.5 mg/kg/day
  Min. Effective Dose: 0.25-1.0%
[3]; start 3 hours post infection
  Lesion Incidence (%): 100%
  Lesion Incidence (number/Total): 10/10
  Lesion Severity (scale 0 to 4): 2.80
[3]; start 8 hours post infection
  Lesion Incidence (%): 100%
  Lesion Incidence (number/Total): 10/10
  Lesion Severity (scale 0 to 4): 2.95
[3]; start 12 hours post infection
  Lesion Incidence (%): 90%
  Lesion Incidence (number/Total): 9/10
  Lesion Severity (scale 0 to 4): 3.30
[3]; start 24 hours post infection
  Lesion Incidence (%): 90%
  Lesion Incidence (number/Total): 9/10
  Lesion Severity (scale 0 to 4): 2.85
[3]; start 48 hours post infection
  Lesion Incidence (%): 80%
  Lesion Incidence (number/Total): 8/10
  Lesion Severity (scale 0 to 4): 2.85
[3]; start 72 hours post infection
  Lesion Incidence (%): 90%
  Lesion Incidence (number/Total): 9/10
  Lesion Severity (scale 0 to 4): 3.60
[3]; start 96 hours post infection
  Lesion Incidence (%): 100%
  Lesion Incidence (number/Total): 7/7
  Lesion Severity (scale 0 to 4): 4.00
[3]; all start times
  incidence of lesions vs placebo: None of the acycloguanosine treated groups had a significantly lower incidence of lesions
[3]; only start 3 hours after infection
  lesion scores vs placebo: statistically different in lesion score
[4]; [19]
  EC50: 0.2 to 0.4 µg/mL (≈ 0.888 to 1.78 µM)
[5]; Recombinant 6-26
  Sensitivity (S) or Resistance (R): S
[6]; Recombinant 6-30
  Sensitivity (S) or Resistance (R): S
[7]; Recombinant 6-34
  Sensitivity (S) or Resistance (R): R
[8]; [20]
  Survivors/Total: 1/10
[8]; [21]
  Avg. Survival Days (confidence interval): 12.1 (8.8, 17.3) Days
  Survivors/Total: 3/10
[8]; [22]
  Avg. Survival Days (confidence interval): 12.4 (8.2, 20.7) Days
  Survivors/Total: 5/10
[8]; [23]
  Avg. Survival Days (confidence interval): 9.0 (7.1, 11.3) Days
  Survivors/Total: 1/10
[8]
  therapeutic effectiveness, treatment initiated up to 72 hours after infection: ineffective
[9]; 3.1 mg/kg/day s.c.
  Avg. Survival Time: 6.4 days
  Percent Survival: 6%
[9]; 12.5 mg/kg/day s.c.
  Avg. Survival Time: 6.2 days
  Percent Survival: 6%
[9]; 50 mg/kg/day s.c.
  Avg. Survival Time: 7.7 days
  Percent Survival: 0%
[10]
  EC50: > 100 µg/mL
[11]; [24]
  EC50: 25 µg/mL (≈ 111 µM)
[12]
  minimal effective dose: 12.5 to 50 mg/kg/day
[13]; HSV-1 wild type Strain 17
  Sensitivity (S) or Resistance (R): S
[14]; HSV-2 TS6
  Sensitivity (S) or Resistance (R): S
[14]
  sensitivity of HSV-2 Ts6: sensitive
[15]
  minimal effective concentration: 10 to 100 µg/mL
[16]; Recombinant 6-19
  Sensitivity (S) or Resistance (R): R
[17]; [25]
  EC50: 3 to 6 µg/mL (≈ 13.3 to 26.6 µM)

## Nc1nc2c(ncn2COC(CO)CO)c(=O)[nH]1 [Compound of Formula II, 9-(1,3-Dihydroxy-2-propoxymethyl)guanine]
[1]
  solubility: 2800 µg/mL
[3]; start 3 hours post infection
  Lesion Incidence (%): 60%
  Lesion Incidence (number/Total): 6/10
  Lesion Severity (scale 0 to 4): 1.30
[3]; start 8 hours post infection
  Lesion Incidence (%): 30%
  Lesion Incidence (number/Total): 3/10
  Lesion Severity (scale 0 to 4): 0.55
[3]; start 12 hours post infection
  Lesion Incidence (%): 50%
  Lesion Incidence (number/Total): 5/10
  Lesion Severity (scale 0 to 4): 0.55
[3]; start 24 hours post infection
  Lesion Incidence (%): 40%
  Lesion Incidence (number/Total): 4/10
  Lesion Severity (scale 0 to 4): 0.40
[3]; start 48 hours post infection
  Lesion Incidence (%): 90%
  Lesion Incidence (number/Total): 9/10
  Lesion Severity (scale 0 to 4): 1.50
[3]; start 72 hours post infection
  Lesion Incidence (%): 80%
  Lesion Incidence (number/Total): 8/10
  Lesion Severity (scale 0 to 4): 2.55
[3]; start 96 hours post infection
  Lesion Incidence (%): 100%
  Lesion Incidence (number/Total): 10/10
  Lesion Severity (scale 0 to 4): 3.85
[3]; start 8, 12 and 24 hours after infection
  incidence of lesion development vs placebo: statistically significant lower incidence of lesion development
[3]; start as late as 72 hours after infection
  lesion scores vs placebo: statistically significant lower lesion scores
[18]
  EC50: > 100 µg/mL
[4]; read-out: ED50, concentration required for 50% plaque inhibition, Herpes simplex virus, MRC5
  EC50: 0.2 µg/mL
[5]
  EC50: 0.05 µg/mL
[6]
  EC50: 0.08 µg/mL
[7]
  EC50: 0.07 µg/mL
[9]; 3.1 mg/kg/day s.c.
  Avg. Survival Time: 12.5 days
  Percent Survival: 53%
[9]; 12.5 mg/kg/day s.c.
  Avg. Survival Time: 14.1 days
  Percent Survival: 73%
[9]; 50 mg/kg/day s.c.
  Avg. Survival Time: 19.1 days
  Percent Survival: 100%
[10]
  EC50: 50 to 100 µg/mL
[11]
  more active than acyclovir: approximately 10 fold
[11]; Human betaherpesvirus 5, AD169, read-out: ED50, concentration required for 50% plaque inhibition, Cytomegalovirus, MRC5
  EC50: 0.8 µg/mL
[13]
  EC50: 0.34 µg/mL
[14]
  sensitivity of HSV-2 Ts6: resistant
[15]
  minimal effective concentration: 1 to 5 µg/mL
[16]
  EC50: 0.1 µg/mL
[17]; Human alphaherpesvirus 3, read-out: ED50, concentration required for 50% plaque inhibition, Varicella Zoster virus, MRC5
  EC50: 3 to 6 µg/mL

## Nc1nc2c(ncn2COC2COP(=O)(O)OC2)c(=O)[nH]1 (centres unmarked) [Cyclic Monophosphate, Potassium 9-(1,3-dihydroxy-2-propoxymethyl)guanine cyclic monophosphate]
[1]; qualitative statement
  solubility compared to compound of Formula II and acyclovir: readily soluble
[2]
  minimal effective dose: 3.1 mg/kg/day
  Min. Effective Dose: 0.06%
[2]; orofacial
  efficacy relative to acyclovir by minimum effective dose: consistently more efficacious than acyclovir
[18]
  EC50: 6 µg/mL
[18]; SV40
  inhibition of DNA virus: inhibitory
[4]; [19]
  EC50: 3 to 6 µg/mL
[5]
  EC50: 1.1 µg/mL
[6]
  EC50: 0.3 µg/mL
[7]
  EC50: 6.3 µg/mL
[8]; [20]
  Survivors/Total: 8/10
[8]; [21]
  Survivors/Total: 3/10
[8]; [22]
  Survivors/Total: 2/10
[8]; [23]
  Survivors/Total: 3/10
[8]
  therapeutic effectiveness, treatment initiated up to 72 hours after infection: therapeutically effective
[10]
  EC50: 6 to 12 µg/mL
[10]; vaccinia
  inhibition of DNA virus: inhibitory
[11]
  more active than acyclovir: approximately 10 fold
  potency relative to compound of Formula II: equipotent
[11]; [24]
  EC50: 0.8 µg/mL
[12]
  minimal effective dose: 0.8 to 3.1 mg/kg/day
[12]; intraperitoneal
  efficacy relative to acyclovir by minimum effective dose: consistently more efficacious than acyclovir
[12]; not shown in Table VI
  antiviral efficacy in the herpes-mouse infection model relative to compound of Formula II: generally equivalent
[13]
  EC50: 0.9 µg/mL
[14]
  sensitivity of HSV-2 Ts6: sensitive
[16]
  EC50: 4.7 µg/mL
[17]
  in vitro effectiveness against Varicella Zoster virus relative to acyclovir or compound of Formula II: substantially more effective
  more active than either compound of Formula II or acyclovir: approximately 10 fold
[17]; [25]
  EC50: 0.4 to 0.8 µg/mL
